Experiments:
[1] = tested on: K. pneumoniae 5055 (control); assay: Meropenem MIC, CLSI broth microdilution; format: cell-based; conditions: for Meropenem MIC in presence of inhibitor: inhibitor 10 μg/ml
Procedure: (§1) CLSI, Wayne, Pa.) in the absence of each inhibitor or in its presence at the concentration stated. In each case the inhibitor solution was added to broth at 0.1% v/v to achieve the required final concentration; DMSO was used to dissolve inhibitors.
(§2) For initial evaluations of the in vitro cell based activity of indole carboxylates we used well characterized bacterial strains (e.g. K. pneumoniae 5055; E. coli ATCC 25713) transformed with broad host range plasmids (e.g. pSU18 and derivatives) encoding few metallo-β-lactamases produced using their physiological (integron) promoters. We also tested a clinical strain, IR60 in the initial studies.^8

[2] = tested on: K. pneumoniae 5055 + NDM-1; assay: Meropenem MIC, CLSI broth microdilution; format: cell-based; conditions: inhibitor 10 μg/ml
Procedure: as §1, §2

E. coli 25922 (control) = assay: Meropenem MIC, CLSI broth microdilution; format: cell-based; conditions: inhibitor 10 μg/ml
Procedure: as §1, §2

E. coli EC10 NDM-1 = assay: Meropenem MIC, clinically derived strains; format: cell-based; conditions: inhibitor 10 μg/ml
Procedure: as §1

[3] = biological target: VIM-2 (Veronese metallo-β-lactamase-2) (Escherichia coli, UniProt Q5U7L7); assay: Enzyme inhibition assay, VIM-2; format: biochemical; conditions: for IC50: read-out: pIC50 VIM-2 (converted)
Procedure: (§3) The biological activity of the compounds of the present invention was tested using standard assay protocols.^7 The following representative enzymes NDM-1 (New Delhi metallo-β-lactamase-1), IMP-1 (Imipenemase-1) and VIM-2 (Veronese metallo-β-lactamase-2) were selected from different clinically relevant B1 metallo-β-lactamases.

[4] = biological target: NDM-1 (New Delhi metallo-β-lactamase-1) (Klebsiella pneumoniae, UniProt C7C422); assay: Enzyme inhibition assay, NDM-1; format: biochemical; conditions: for IC50: read-out: pIC50 NDM-1 (converted)
Procedure: as §3

E. coli IR60 = assay: Meropenem MIC, CLSI broth microdilution; format: cell-based; conditions: inhibitor 10 μg/ml
Procedure: as §1, §2
IR60 is a clinically strain original from India.^8 IR60 is also a multiresistant clinical strain.

IMP-1 (Imipenemase-1) = IMP-1 (Imipenemase-1) (Serratia marcescens, UniProt P52699); assay: Enzyme inhibition assay, IMP-1; format: biochemical; conditions: for IC50: read-out: pIC50 IMP-1 (converted)
Procedure: as §3

K. pneumoniae A34 VIM-4 = assay: Meropenem MIC, clinically derived strains; format: cell-based; conditions: for Meropenem MIC in presence of inhibitor: inhibitor 10 μg/ml
Procedure: as §1
(§4) The results shown in Table 2 reveal that compounds of formula (I) are active in cells, including clinically relevant bacterial strains. Further studies were carried out to determine if compound of formula (I) potentiates BLA activity in clinically derived strains containing IMP-4, […] or NDM-1, which are the most commonly observed MBLs in clinical isolates.

K. pneumoniae B12 IMP-4 = assay: Meropenem MIC, clinically derived strains; format: cell-based; conditions: for Meropenem MIC in presence of inhibitor: inhibitor 10 μg/ml
Procedure: as §1, §4

K. pneumoniae IR16 NDM-1 = assay: Meropenem MIC, clinically derived strains; format: cell-based; conditions: for Meropenem MIC in presence of inhibitor: inhibitor 10 μg/ml
Procedure: as §1, §4

K. pneumoniae 5055 IMP-1 = assay: Meropenem MIC, clinically derived strains; format: cell-based; conditions: for Meropenem MIC in presence of inhibitor: inhibitor 10 μg/ml
Procedure: as §1, §4

K. pneumoniae B19 IMP-4 = assay: Meropenem MIC, clinically derived strains; format: cell-based; conditions: for Meropenem MIC in presence of inhibitor: inhibitor 10 μg/ml
Procedure: as §1, §4

[5] = tested on: K. pneumonia strain containing most clinically significant MBLs; assay: Screening against K. pneumonia strain containing MBLs, overall statement; format: cell-based; conditions: Table 4
Procedure: as §1

Sequence of NDM-1 (New Delhi metallo-β-lactamase-1) (C7C422 29-270, looked up, species assumed): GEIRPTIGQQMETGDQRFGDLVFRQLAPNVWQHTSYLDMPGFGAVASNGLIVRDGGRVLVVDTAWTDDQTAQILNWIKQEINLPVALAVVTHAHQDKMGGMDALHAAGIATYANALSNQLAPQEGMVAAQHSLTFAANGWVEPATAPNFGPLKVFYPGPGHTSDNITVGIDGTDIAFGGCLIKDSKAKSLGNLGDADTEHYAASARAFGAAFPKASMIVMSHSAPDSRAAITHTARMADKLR
Sequence of IMP-1 (Imipenemase-1) (P52699 19-246, looked up, species assumed): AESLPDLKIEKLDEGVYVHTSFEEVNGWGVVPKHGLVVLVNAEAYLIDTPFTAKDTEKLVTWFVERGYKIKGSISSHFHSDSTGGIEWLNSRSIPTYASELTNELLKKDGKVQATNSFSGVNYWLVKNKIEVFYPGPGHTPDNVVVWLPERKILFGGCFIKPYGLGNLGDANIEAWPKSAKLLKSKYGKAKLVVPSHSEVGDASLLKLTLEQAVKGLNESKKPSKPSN

With `Cc1cccc2c(-c3ccc(S(N)(=O)=O)cc3)c(C(=O)O)[nH]c12` [Example 6, 7-methyl-3-(4-sulfamoylphenyl)-1H-indole-2-carboxylic acid] the Meropenem MIC in presence of inhibitor [1] was less than 0.25 µg/mL, the Meropenem MIC in presence of inhibitor [2] was 1 µg/mL and the Meropenem MIC in presence of inhibitor (E. coli 25922 (control)) was less than 0.25 µg/mL. It also gave a Meropenem MIC in presence of inhibitor (E. coli EC10 NDM-1) of 8 µg/mL, an IC50 [3] of 316 nM and an IC50 [4] of 15.8 nM. The Meropenem MIC in presence of inhibitor (E. coli IR60) was less than 0.25 µg/mL, the IC50 (IMP-1 (Imipenemase-1)) was 10000 nM and the Meropenem MIC in presence of inhibitor (K. pneumoniae A34 VIM-4) was 16 µg/mL. For the same compound, the Meropenem MIC in presence of inhibitor (K. pneumoniae B12 IMP-4) was 16 µg/mL, the Meropenem MIC in presence of inhibitor (K. pneumoniae IR16 NDM-1) was 2 µg/mL and the Meropenem MIC in presence of inhibitor (K. pneumoniae 5055 IMP-1) was 8 µg/mL. The Meropenem MIC in presence of inhibitor (K. pneumoniae B19 IMP-4) was 8 µg/mL.
In the case of `Cc1cccc2c(-c3ccc(S(C)(=O)=O)cc3)c(C(=O)O)[nH]c12` [Example 12, 7-methyl-3-(4-(methylsulfonyl)phenyl)-1H-indole-2-carboxylic acid], the Meropenem MIC in presence of inhibitor [1] is reported as less than 0.25 µg/mL, the Meropenem MIC in presence of inhibitor [2] is reported as 8 µg/mL and the Meropenem MIC in presence of inhibitor (E. coli 25922 (control)) is reported as less than 0.25 µg/mL. The Meropenem MIC in presence of inhibitor (E. coli EC10 NDM-1) was 8 µg/mL, the IC50 [3] was 316 nM and the IC50 [4] was 12.6 nM. For the same compound, the Meropenem MIC in presence of inhibitor (E. coli IR60) was less than 0.5 µg/mL, the IC50 (IMP-1 (Imipenemase-1)) was 12600 nM and the Meropenem MIC in presence of inhibitor (K. pneumoniae A34 VIM-4) was 16 µg/mL. It also gave a Meropenem MIC in presence of inhibitor (K. pneumoniae B12 IMP-4) of 8 µg/mL, a Meropenem MIC in presence of inhibitor (K. pneumoniae IR16 NDM-1) of 1 µg/mL and a Meropenem MIC in presence of inhibitor (K. pneumoniae 5055 IMP-1) of 8 µg/mL. For the same compound, the Meropenem MIC in presence of inhibitor (K. pneumoniae B19 IMP-4) was 8 µg/mL.
Work on `CC(C)c1cccc2c(-c3ccc(F)cc3)c(C(=O)O)[nH]c12` [Example 53, 3-(4-fluorophenyl)-7-isopropyl-1H-indole-2-carboxylic acid] yielded a Meropenem MIC in presence of inhibitor [1] of less than 0.25 µg/mL, a Meropenem MIC in presence of inhibitor [2] of 4 µg/mL and a Meropenem MIC in presence of inhibitor (E. coli 25922 (control)) of less than 0.25 µg/mL. The Meropenem MIC in presence of inhibitor (E. coli EC10 NDM-1) was 1 µg/mL, the IC50 [3] was 31.6 nM and the IC50 [4] was 12.6 nM. The Meropenem MIC in presence of inhibitor (E. coli IR60) was less than 0.25 µg/mL, the IC50 (IMP-1 (Imipenemase-1)) was 501 nM and the Meropenem MIC in presence of inhibitor (K. pneumoniae A34 VIM-4) was 4 µg/mL. The Meropenem MIC in presence of inhibitor (K. pneumoniae B12 IMP-4) was 2 µg/mL, the Meropenem MIC in presence of inhibitor (K. pneumoniae IR16 NDM-1) was 1 µg/mL and the Meropenem MIC in presence of inhibitor (K. pneumoniae 5055 IMP-1) was 2 µg/mL. The Meropenem MIC in presence of inhibitor (K. pneumoniae B19 IMP-4) was 1 µg/mL.
For `CC(C)c1cccc2c(-c3cc(Cl)cc(Cl)c3)c(C(=O)O)[nH]c12` [Example 76, 3-(3,5-dichlorophenyl)-7-isopropyl-1H-indole-2-carboxylic acid], the “activity against all the MBLs” value [5] was “good activity”, the IC50 [3] was 3.98 nM and the IC50 [4] was 7.94 nM. For the same compound, the IC50 (IMP-1 (Imipenemase-1)) was 15.8 nM.
Work on `Cc1noc(C)c1-c1c(C(=O)O)[nH]c2c(C)cccc12` [Example 117, 3-(3,5-dimethylisoxazol-4-yl)-7-methyl-1H-indole-2-carboxylic acid] yielded an IC50 [3] of 200 nM, an IC50 [4] of 1260 nM and an IC50 (IMP-1 (Imipenemase-1)) greater than 100000 nM.
In the case of `Cc1ccc2c(-c3ccc(F)cc3)c(C(=O)O)[nH]c2c1` [Example 119, 3-(4-fluorophenyl)-6-methyl-1H-indole-2-carboxylic acid], the IC50 [3] is reported as 15800 nM, the IC50 [4] is reported as 2000 nM and the IC50 (IMP-1 (Imipenemase-1)) is reported as 79400 nM.
`Cc1cccc2c1cc(C(=O)O)n2-c1ccc(F)cc1` [Example 120, 1-(4-fluorophenyl)-4-methyl-1H-indole-2-carboxylic acid] gave an IC50 [3] of 31600 nM, an IC50 [4] greater than 20000 nM and an IC50 (IMP-1 (Imipenemase-1)) greater than 100000 nM.
In the case of `CC(C)NC(=O)c1[nH]c2c(C(C)C)cccc2c1-c1ccc(S(=O)(=O)N(C)C)cc1` [Example 123, 3-(4-(N,N-dimethylsulfamoyl)phenyl)-N,7-diisopropyl-1H-indole-2-carboxamide], the “pIC50 VIM-2” value [3] is reported as “N.I”, the “pIC50 NDM-1” value [4] is reported as “N.I” and the “pIC50 IMP-1” value (IMP-1 (Imipenemase-1)) is reported as “N.I”.
`CC(C)c1cccc2c(-c3ccc(S(=O)(=O)N(C)C)cc3)c(C(=O)Nc3nccs3)[nH]c12` [Example 124, 3-(4-(N,N-dimethylsulfamoyl)phenyl)-7-isopropyl-N-(thiazol-2-yl)-1H-indole-2-carboxamide] was tested, and the “pIC50 VIM-2” value [3] was “N.I”, the “pIC50 NDM-1” value [4] was “N.I” and the “pIC50 IMP-1” value (IMP-1 (Imipenemase-1)) was “N.I”.
In the case of `CC(C)c1cccc2c(-c3ccc(S(=O)(=O)N(C)C)cc3)c(C(=O)Nc3ccccc3)[nH]c12` [Example 127, 3-(4-(N,N-dimethylsulfamoyl)phenyl)-7-isopropyl-N-phenyl-1H-indole-2-carboxamide], the “pIC50 VIM-2” value [3] is reported as “N.I”, the IC50 [4] is reported as 398 nM and the “pIC50 IMP-1” value (IMP-1 (Imipenemase-1)) is reported as “N.I”.
`C[C@@H](O)[C@H]1C(=O)N2C(C(=O)O)=C(S[C@@H]3CN[C@H](C(=O)N(C)C)C3)[C@H](C)[C@H]12` [Meropenem, meropenem, reference compound] showed a Meropenem MICs ([1]; meropenem alone) of less than 0.25 µg/mL, a Meropenem MIC (K. pneumoniae A34 VIM-4; meropenem alone) of 64 µg/mL and a Meropenem MIC (K. pneumoniae B12 IMP-4; meropenem alone) of 16 µg/mL. The Meropenem MIC (K. pneumoniae IR16 NDM-1; meropenem alone) was 16 µg/mL, the Meropenem MIC (K. pneumoniae 5055 IMP-1; meropenem alone) was 16 µg/mL and the Meropenem MIC (K. pneumoniae B19 IMP-4; meropenem alone) was 16 µg/mL.
